Experimental data as given in patent US10285943B2, “Aptamer bioconjugate drug delivery device” (GreenMark Biomedical Inc., priority 2010, dated 2019).

Test system: D 245 glioblastoma multiform human xenograph
Test: In vivo studies of human xenographs implanted in athymic mice
Details: Free Dox control
Procedure: Athymic mice were chosen for these studies because normal mice are capable of immunologically rejecting implanted foreign xenographs, specifically human tumors. The animals (both control and treated) were monitored for tumor regression and survival.
The procedure consisted of inoculation of a tumor brei into a subcutaneous site in athymic mice. The subcutaneous tumors were grown to approximately 200 cubic millimeters in size (6-8 mm in diameter). Subsequently, either the free drug or the drug loaded nanoparticles were injected at the tumor site or i.p. (intra peritoneal). […] The animals were treated in groups of 8 to 10 individuals.
Dispersions were 100 mg nanospheres/5 mL saline (1×0.5% Dox-nano), 200 mg nanospheres/5 mL saline (2×0.5% Dox-nano) or 400 mg nanospheres/5 mL saline (4×0.5% Dox-nano).
Injections were each 0.25 mL/20 gram mouse (all single injections).
T-C is defined as: Average of (days lived by drug-treated animal minus days lived by control animals); i.e., increased life span in days.
The Control was provided as follows: Varied—Untreated mice injected with saline; Untreated mice; Mice treated with drug-free nanospheres (100 mgs/5 mL saline).
P value: Test run for significance. P values are calculated using non-parametric statistical method by Hollander and Wolfe.
Regressions: Indicate that tumors drop below previous measurement and stay below for 2 consecutive measurements.

Substance: (7S,9S)-7-[(2R,4S,5S,6S)-4-amino-5-hydroxy-6-methyloxan-2-yl]oxy-6,9,11-trihydroxy-9-(2-hydroxyethyl)-4-methoxy-8,10-dihydro-7H-tetracene-5,12-dione [Free Dox]
- Regressions (5 mg/kg, animals with regression/group): 0/10
- Toxic deaths (5 mg/kg, deaths/group): 0/10
- T-C (increased life span in days) (drug dose 5 mg/kg, injected at the tumor site or i.p.): 1.53 days
